The structures appear in SMILES notation.

The test has as its system OvCAR3 cells. Kind of test: Cellular proliferation / Cytotoxicity assay (Alamar Blue). The format is cell-based. To be noted: Homo sapiens, OVCAR-3, 48h incubation, Alamar Blue (Resazurin) cell viability, read-out: Anti-proliferative / Cytotoxic activity (OvCAR3 cells). How it is done: The anti-proliferative activity of the compounds as described herein, is evaluated using the OvCAR3, HCT116 and A549 cell lines and the Alamar Blue (Resazurin) cell viability assay (O'Brien et al. Eur J Biochem 267, 5421-5426, 2000). Resazurin is reduced to the fluorescent resorufin by cellular dehydrogenase activity, correlating with viable, proliferating cells. Test compounds are dissolved as 10 mM solutions in DMSO and subsequently diluted. Cells like HCT116 or A549 cells were seeded into 96 well flat bottom plates at a density of 10000 cells/well (OvCAR3 cells), 1000 cells/well (HCT116 cells) or 2000 cells/well (A549 cells) in a volume of 200 µl/well. 24 hours after seeding, 1 µl each of the compound dilutions are added into each well of the 96 well plates. Each compound dilution is tested as at least as duplicates. Wells containing untreated control cells were filled with 200 µl DMEM (Dulbecco's Modified Eagle Medium) containing 0.5vol% v:v DMSO. The cells are then incubated with the substances for 48h at 37°C in a humidified atmosphere containing 5vol% CO2. To determine the viability of the cells, 20 µl of a Resazurin solution (90mg / l) are added. After 4h incubation at 37°C, the fluorescence is measured by extinction at ? = 544 nm and an emission of ? = 590 nm (Wallac Victor2; Perkin Elmer, USA). For the calculation of the cell viability, the emission value from untreated cells is set as 100% viability and the fluorescence intensity of treated cells are set in relation to the values of untreated cells. Viabilities are expressed as % values. The corresponding IC50 values of the compounds for cytotoxic activity are determined from the concentration-effect curves by means of non-linear regression. The analysis of the data is performed using a biostatistical program (GraphPad Prism, USA). Representative IC50 values for anti-proliferative / cytotoxic potency determined in the aforementioned assay follow from the following table, in which the numbers of the compound correspond to the numbers of the examples.

Regarding `c1ccc(-c2cn3ccnc3nc2-c2ccc(CN3CCC(c4n[nH]c(-c5cnccn5)n4)CC3)cc2)cc1` [Example 21, 6-phenyl-7-(4-{[4-(5-pyrazin-2-yl-1,2,4-triazol-3-yl)piperidin-1-yl]methyl}phenyl)imidazo[1,2-a]pyrimidine], the IC50 was > 1000 nM.

For the molecule `c1ccc(-c2cn3ccnc3nc2-c2ccc(CN3CCC(c4n[nH]c(-c5ncccn5)n4)CC3)cc2)cc1` [Example 18, 6-phenyl-7-(4-{[4-(5-pyrimidin-2-yl-1,2,4-triazol-3-yl)piperidin-1-yl]methyl}phenyl)imidazo[1,2-a]pyrimidine], the IC50 is > 1000 nM.

Regarding `c1ccc(-c2cn3ccnc3nc2-c2ccc(CN3CCC(c4cc(-c5ccccn5)n[nH]4)CC3)cc2)cc1` [Example 5, 6-phenyl-7-(4-{[4-(3-pyridin-2-yl-pyrazol-5-yl)piperidin-1-yl]methyl}phenyl)imidazo[1,2-a]pyrimidine], the IC50 was > 1000 nM.

As for `CCc1cn2cc(-c3ccccc3)c(-c3ccc(CN4CCC(c5n[nH]c(-c6ccccn6)n5)CC4)cc3)nc2n1` [Example 17, 2-ethyl-6-phenyl-7-(4-{[4-(5-pyridin-2-yl-1,2,4-triazol-3-yl)piperidin-1-yl]methyl}phenyl)imidazo[1,2-a]pyrimidine], the IC50 was < 1000 nM.

With `C#Cc1cnc2nc(-c3ccc(CN4CCC(c5n[nH]c(-c6ccccn6)n5)CC4)cc3)c(-c3ccccc3)cn12` [Example 13, 3-ethynyl-6-phenyl-7-(4-{[4-(5-pyridin-2-yl-1,2,4-triazol-3-yl)piperidin-1-yl]methyl}phenyl)imidazo[1,2-a]pyrimidine], the IC50 was < 1000 nM.

As for `c1ccc(-c2cn3ccnc3nc2-c2ccc(CN3CCC(n4cnc(-c5ccccn5)c4)CC3)cc2)cc1` [Example 20, 6-phenyl-7-(4-{[4-(4-pyridin-2-yl-imidazol-1-yl)piperidin-1-yl]methyl}phenyl)imidazo[1,2-a]pyrimidine], the IC50 was > 1000 nM.

For `CCc1cnc2nc(-c3ccc(CN4CCC(c5n[nH]c(-c6ccccn6)n5)CC4)cc3)c(-c3ccccc3)cn12` [Example 22, 3-ethyl-6-phenyl-7-(4-{[4-(5-pyridin-2-yl-1,2,4-triazol-3-yl)piperidin-1-yl]methyl}phenyl)imidazo[1,2-a]pyrimidine], the IC50 was < 1000 nM.

For `c1ccc(-c2cn3nc(C4CC4)nc3nc2-c2ccc(CN3CCC(c4n[nH]c(-c5ccccn5)n4)CC3)cc2)cc1` [Example 4, 2-cyclopropyl-6-phenyl-5-(4-{[4-(5-pyridin-2-yl-1,2,4-triazol-3-yl)piperidin-1-yl]methyl}phenyl)[1,2,4]triazolo[1,5-a]pyrimidine], the IC50 is < 1000 nM.

Turning to `CNc1c(-c2ccccc2)c(-c2ccc(CN3CCC(c4n[nH]c(-c5ccccn5)n4)CC3)cc2)nc2nccn12` [Example 10, N-methyl-6-phenyl-7-(4-{[4-(5-pyridin-2-yl-1,2,4-triazol-3-yl)piperidin-1-yl]methyl}phenyl)imidazo[1,2-a]pyrimidin-5-amine], the IC50 was > 1000 nM.

With `c1ccc(-c2cn3nc(C4CCC4)nc3nc2-c2ccc(CN3CCC(c4n[nH]c(-c5ccccn5)n4)CC3)cc2)cc1` [Example 7, 2-cyclobutyl-6-phenyl-5-(4-{[4-(5-pyridin-2-yl-1,2,4-triazol-3-yl)piperidin-1-yl]methyl}phenyl)[1,2,4]triazolo[1,5-a]pyrimidine], the IC50 is < 1000 nM.

Regarding `N#Cc1cnc2nc(-c3ccc(CN4CCC(c5n[nH]c(-c6ccccn6)n5)CC4)cc3)c(-c3ccccc3)cn12` [Example 8, 6-phenyl-7-(4-{[4-(5-pyridin-2-yl-1,2,4-triazol-3-yl)piperidin-1-yl]methyl}phenyl)imidazo[1,2-a]pyrimidine-3-carbonitrile], the IC50 is > 1000 nM.

As to `c1ccc(-c2cn3ccnc3nc2-c2ccc(CN3CCC(c4n[nH]c(-c5ccncc5)n4)CC3)cc2)cc1` [Example 6, 6-phenyl-7-(4-{[4-(5-pyridin-4-yl-1,2,4-triazol-3-yl)piperidin-1-yl]methyl}phenyl)imidazo[1,2-a]pyrimidine], the IC50 is > 1000 nM.

Consider `Cc1cnc2nc(-c3ccc(CN4CCC(c5n[nH]c(-c6ccccn6)n5)CC4)cc3)c(-c3ccccc3)cn12` [Example 14, 3-methyl-6-phenyl-7-(4-{[4-(5-pyridin-2-yl-1,2,4-triazol-3-yl)piperidin-1-yl]methyl}phenyl)imidazo[1,2-a]pyrimidine], for which the IC50 is < 1000 nM.

As to `c1ccc(-c2cn3nccc3nc2-c2ccc(CN3CCC(c4n[nH]c(-c5ccccn5)n4)CC3)cc2)cc1` [Example 19, 6-phenyl-5-(4-{[4-(5-pyridin-2-yl-1,2,4-triazol-3-yl)piperidin-1-yl]methyl}phenyl)pyrazolo[1,5-a]pyrimidine], the IC50 is < 1000 nM.

As for `Brc1cnc2nc(-c3ccc(CN4CCC(c5n[nH]c(-c6ccccn6)n5)CC4)cc3)c(-c3ccccc3)cn12` [Example 11, 3-bromo-6-phenyl-7-(4-{[4-(5-pyridin-2-yl-1,2,4-triazol-3-yl)piperidin-1-yl]methyl}phenyl)imidazo[1,2-a]pyrimidine], the IC50 was < 1000 nM.

Take `c1ccc(-c2cn3ncnc3nc2-c2ccc(CN3CCC(c4n[nH]c(-c5ccccn5)n4)CC3)cc2)cc1` [Example 2, 6-phenyl-5-(4-([4-(5-pyridin-2-yl-1,2,4-triazol-3-yl)piperidin-1-yl]methyl}phenyl)[1,2,4]triazolo[1,5-a]pyrimidine]: the IC50 was > 1000 nM.

Consider `Clc1cnc2nc(-c3ccc(CN4CCC(c5n[nH]c(-c6ccccn6)n5)CC4)cc3)c(-c3ccccc3)cn12` [Example 12, 3-chloro-6-phenyl-7-(4-{[4-(5-pyridin-2-yl-1,2,4-triazol-3-yl)piperidin-1-yl]methyl}phenyl)imidazo[1,2-a]pyrimidine], for which the IC50 was < 1000 nM.

As for `Fc1cnc2nc(-c3ccc(CN4CCC(c5n[nH]c(-c6ccccn6)n5)CC4)cc3)c(-c3ccccc3)cn12` [Example 9, 3-fluoro-6-phenyl-7-(4-{[4-(5-pyridin-2-yl-1H-1,2,4-triazol-3-yl)piperidin-1-yl]methyl}phenyl)imidazo[1,2-a]pyrimidine], the IC50 was < 1000 nM.

For the molecule `C=Cc1cnc2nc(-c3ccc(CN4CCC(c5n[nH]c(-c6ccccn6)n5)CC4)cc3)c(-c3ccccc3)cn12` [Example 15, 6-phenyl-7-(4-{[4-(5-pyridin-2-yl-1,2,4-triazol-3-yl)piperidin-1-yl]methyl}phenyl)-3-vinylimidazo[1,2-a]pyrimidine], the IC50 is < 1000 nM.

For `Cc1nc2nc(-c3ccc(CN4CCC(c5n[nH]c(-c6ccccn6)n5)CC4)cc3)c(-c3ccccc3)cn2n1` [Example 3, 2-methyl-6-phenyl-5-(4-{[4-(5-pyridin-2-yl-1,2,4-triazol-3-yl)piperidin-1-yl]methyl}phenyl)[1,2,4]triazolo[1,5-a]pyrimidine], the IC50 was < 1000 nM.

As to `c1ccc(-c2cn3ccnc3nc2-c2ccc(CN3CCC(c4nc(-c5ccccn5)n[nH]4)CC3)cc2)cc1` [Example 1, 6-phenyl-7-(4-{[4-(3-pyridin-2-yl-1,2,4-triazol-5-yl)piperidin-1-yl]methyl}phenyl)imidazo[1,2-a]pyrimidine], the IC50 was > 1000 nM.

Values taken from EP2050748A1, “Novel fused pyrimidines” (Bayer Schering Pharma Aktiengesellschaft, priority 2007, dated 2009).
